“Also recorded” adds a separate entry of the source.
Experiments:
ABCA1 [1] = assay: ABCA1 expression in HepG2 liver cells, real time PCR; assay type: cell-based, human; conditions: HepG2, treated overnight
Method: (§1) The hepatoma cell line HepG2 are frequently used as in vitro models of liver cells. They are easy to culture and retain many properties of liver cells including expression of various genes involved in lipid metabolism.
(§2) This example illustrates the effect of compound A on genes associated with RCT in HepG2 cells.
(§3) Human HepG2 cells were cultured in DMEM containing 4500 mg glucose/L (ATCC) supplemented with 10% fetal bovine serum (FBS), penicillin (100 U/ml), and streptomycin (100 μg/ml) in a humidified atmosphere (5% CO2 in air) at 37° C. Cells were plated onto 12 well dishes and cultured in low serum (0.5% FBS) for experiments. Cells were treated with either vehicle (DMSO) or the test compound overnight and used for RNA isolation. Briefly, cells were lysed in 300 uL of lysis buffer (Qiagen) and placed in the TissueLyser (Qiagen) for 3 minutes. Samples were then processed as described by the RNeasy mini kit. RNA was then verified and quantified using the Agilent RNA 600 Nano Assay Labchip® system, and real time PCR was performed to quantitate gene expression using validated primer sets from SuperArray. The results were illustrated in FIGS. 8-9.

ABCA1 [2] = assay: ABCA1 gene expression in LDL-r null mouse liver, real time PCR; assay type: in vivo
Method: (§4) To determine if a test compound was capable of upregulating these three RCT pathway genes, LDL-r mice were treated with vehicle alone (control) or vehicle containing a defined amount of a test compound termed, “compound A”.
(§5) LDL-r mice were chosen because they are prone to develop atherosclerosis. After 7 days of treatment, the three RCT pathway genes were quantitated using real time PCR. […] Thus, compound A coordinately up regulated the three RCT pathway genes, namely ABCA1, LCAT, and SRB1.
(§6) This example illustrates the effect of compound A on HDL and the ABCA1, SR-B1 and LCAT genes associated with RCT in LDL-receptor (LDLr) null mice in a short term model.
Eight-weeks-old LDLr mice (Jackson Laboratories, Bar Harbor, Me.), were used for this Example. Mice were distributed into two groups of 8 mice each. […]
(§7) After one week, plasma samples were collected and used for HDL determination. Mice were euthanized by CO2, and aorta and liver samples were collected for RNA isolation.
(§8) Next, liver and aorta samples from vehicle and compound A treated mice were removed, flash frozen in liquid nitrogen and subsequently used for RNA isolation. […] RNA was then verified and quantified using the Agilent RNA 600 Nano Assay Labchip® system, and real time PCR was performed to quantitate the gene expression of SR-B1, ABCA1 and LCAT using validated primer sets from SuperArray. […]

SRB1 = SRB1 expression in HepG2 liver cells, real time PCR; assay type: cell-based, human; conditions: HepG2, treated overnight
Method: as §1, §2, §3

[3] = Plasma HDL levels in LDLr null mice, short term model; assay type: in vivo, mouse; conditions: 7-day treatment
Description: Upregulation of ABCA1 and LCAT also should result in the formation of HDL particles. Following 7-day treatment, compound A increased HDL levels by greater than 50% (FIG. 4).
as §6
(§9) Eight-weeks-old LDLr mice (Jackson Laboratories, Bar Harbor, Me.), were used for this Example. Mice were distributed into two groups of 8 mice each. One group received vehicle containing carboxymethyl cellulose and Tween-80 (Sigma Chemical Co.), and the other group received a daily dose of compound A at 25 mg/kg.
as §7

LCAT = LCAT gene expression in LDL-r null mouse liver, real time PCR; assay type: in vivo
Method: as §4, §5, §6
as §9, with “mg/kg. […]” for “mg/kg.”
as §8

ABCA1 [4] = assay: ABCA1 expression in normal animals (rat liver), real time PCR; assay type: in vivo
Description: (§10) After 7 days of treatment RCT pathway genes were quantitated using real time PCR.

SR-B1 [5] = assay: SR-B1 expression in normal animals (rat liver), real time PCR; assay type: in vivo
Description: as §10

SR-B1 [6] = assay: SR-B1 gene expression in LDL-r null mouse liver, real time PCR; assay type: in vivo
Method: as §4, §5, §6
as §9, with “mg/kg. […]” for “mg/kg.”
as §8

atherosclerotic lesions = assay: Atherosclerotic lesion area in LDLr null mice on Western Diet, long term model; assay type: in vivo, mouse; conditions: high fat diet, 25 mg/kg daily, 16 weeks
Description: The atheroprotective effects of HDL to a large extent are attributed to its ability to remove cholesterol from macrophages present in atherosclerotic lesions to transport them to liver for excretion into bile. LDLr null mice develop atherosclerosis when fed a high fat diet. […] This example illustrates the effect of compound A on HDL and atherosclerosis in LDLr null mice in a long term model. Eight-weeks-old LDLr null mice (Jackson Laboratories, Bar Harbor, Me.), were used for these studies. Two groups of 8 mice each received a Western Diet (Research Diet incorporated, New Brunswick, N.J.; D12079B containing 0.1% cholesterol) for 2 weeks. Plasma samples were collected and used for lipid analysis. Mice were then distributed into two groups, one group received vehicle containing carboxymethyl cellulose and Tween-80 (Sigma Chemical Co.), and the other group received a daily dose of compound A at 25 mg/kg. Both groups were continued on the Western Diet for another 16 weeks. At the end of the 16 weeks, the mice were euthanized by CO2, and whole aortas (from aortic sinus to the beginning of iliac aorta) were isolated, and fixed in 10% paraformaldehyde. […] Images of whole aortas were obtained by microscopic digital camera, and the lesion area was determined by computer-assisted morphometry (Image Pro, Media cybermetics) as percentages of coverage in whole aorta. […]

CAD = conditions: 4081 asymptomatic middle-aged men with primary dyslipidemia, 5 years; cited from earlier work
[7] = LDL-r mice, 10 and 25 mg/kg, 7 days of treatment, liver
[8] = normal animals, 10 and 25 mg/kg, 7 days of treatment

Compound | ABCA1 expression in liver cells (ABCA1 [1]) | ABCA1 expression in liver cells (ABCA1 [1]; listed as compound of Formula I) | ABCA1 expression in LDL-r null mouse liver (ABCA1 [2]) | increase in ABCA1 expression compared to vehicle treated animals (ABCA1 [2]; [7]) | SRB1 expression in liver cells (SRB1) | increase in HDL levels [3] | LCAT expression in LDL-r null mouse liver (LCAT) | increase in LCAT expression (LCAT; LDL-r mice, 7 days of treatment, liver) | ABCA1 expression in rat liver (ABCA1 [4]) | increase in ABCA1 expression compared to vehicle treated animals (ABCA1 [4]; [8]) | SRB1 expression in rat liver (SR-B1 [5]) | increase in SR-B1 expression compared to vehicle treated animals (SR-B1 [5]; [8]) | SRB1 expression in LDL-r null mouse liver (SR-B1 [6]) | increase in SR-B1 expression compared to vehicle treated animals (SR-B1 [6]; [7]) | effect on atherosclerotic lesions (atherosclerotic lesions) | decrease in CAD (CAD) [%]
CC(=O)c1ccc(Nc2nc(-c3ccccc3)cc(N3CCC(O)CC3)n2)cc1 [compound A] | induces | capable of increasing | induces | 2-3 fold | capable of increasing | greater than 50% | induces | 30-90% | induces | 2-4 fold | induces | 2-4 fold | induces | 2-2.5 fold | inhibits atherosclerosis development; also recorded: significant decrease | –
Cc1ccc(C)c(OCCCC(C)(C)C(=O)O)c1 [gemfibrozil] | – | – | – | – | – | – | – | – | – | – | – | – | – | – | – | 34
